Reference: US20240067672A1, “FLAVONE DERIVATIVE FOR TREATING TUMORS AND USE THEREOF” (SICHUAN FUSHENGYUAN TECHNOLOGY CO., LTD, priority 2019, published 2024)
≈ marks a conversion by molar mass, not a printed value. Read-outs that look alike come from different tables or passages of the source.

Key:
SMMC7721 hepatoma cells = assay: Anti-tumor activity in vitro, MTT method, SMMC7721; format: cell-based, human; conditions: for IC50 compared with Icaritin, SMMC7721 72 h: SMMC7721, 72 h after administration
Procedure: (§1) The effects of Icaritin and its derivatives on the activities of HepG2 and SMMC7721 hepatoma cells were investigated by a MTT method. […] After reaction for 48, 7 2 h, each well was added with 20 μL 5 mg/mL, of MTT solution, and incubated in a cell incubator for 3-4 h. Then the liquid in the well plates was sucked to discard. Each well was added with 150 μL of dimethyl sulfoxide (DMSO), and shaken on an enzyme-labeled instrument for 30 s at ambient temperature so that the Formazan crystals were dissolved sufficiently. The absorbance value A of each well at 570 nm was detected by the enzyme-labeled instrument, and the experiment was repeated for 3 times.

HepG2 hepatoma cells = assay: Anti-tumor activity in vitro, MTT method, HepG2; format: cell-based, human; conditions: for IC50 compared with Icaritin, HepG2 72 h: HepG2, 72 h after administration
Procedure: as §1

[1] = Determination of solubility (HPLC); format: physicochemical; conditions: for solubility: 37 °C, thermodynamic from solid
Procedure: About 1.325 mg of Icaritin and the synthesized derivative were weighed and dissolved in 1.5 mL methanol respectively, then diluted with methanol into solutions of 10, 20, 50, 100, 150, 200, 500 μg/mL, and filtered over an organic-system filter head of 0.45 μm into sample bottles, obtaining the samples for test. Four parts of Icaritin and the synthesized derivative were weighed respectively, 1.00 mg for each part, and placed into 1.5 mL EP tubes, and 1 mL of water, normal saline, PBS, and 0.1% Tween 80 were respectively added thereto. The obtained solutions were ultrasonicated for 1 h, placed in a water bath at 37° C. overnight, and centrifuged at 10000 r/min for 3 min to collect supernatants. The supernatants were taken into sample bottles and detected by HPLC. The experiments were conducted in parallel for three times. The detection of HPLC is conducted under conditions of a chromatographic column of waters Symmetry C18, a mobile phase of a solution of methanol and water with a ratio of 80:20, a flow rate of 1.0 mL/min, a column temperature of 30° C., a detection wavelength of 210 nm, a run time of 30 min, and a sample load of 20 μL.

[2] = Homo sapiens, SMMC-7721, SMMC7721, 48 h, MTT, read-out: IC50 SMMC7721 48 h
[3] = Homo sapiens, SMMC-7721, SMMC7721, 72 h, MTT, read-out: IC50 SMMC7721 72 h
[4] = Homo sapiens, HepG2, 48 h, MTT, read-out: IC50 HepG2 48 h
[5] = Homo sapiens, HepG2, 72 h, MTT, read-out: IC50 HepG2 72 h
[6] = aqueous with cosolvent or surfactant or cyclodextrin
[7] = SMMC7721, 48 h, MTT, read-out: IC50 SMMC7721 48 h
[8] = SMMC7721, 72 h, MTT, read-out: IC50 SMMC7721 72 h
[9] = HepG2, 48 h, MTT, read-out: IC50 HepG2 48 h
[10] = HepG2, 72 h, MTT, read-out: IC50 HepG2 72 h

Structure (SMILES)	IC50 (SMMC7721 hepatoma cells; [2]) [µM]	IC50 (SMMC7721 hepatoma cells; [3]) [µM]	IC50 (HepG2 hepatoma cells; [4]) [µM]	IC50 (HepG2 hepatoma cells; [5]) [µM]	solubility ([1]; aqueous buffer) [µg/mL]	solubility [1, 6] [µg/mL]	solubility ([1]; water) [µg/mL]	IC50 (SMMC7721 hepatoma cells; [7]) [µM]	IC50 (SMMC7721 hepatoma cells; [8]) [µM]	IC50 (HepG2 hepatoma cells; [9]) [µM]	IC50 (HepG2 hepatoma cells; [10]) [µM]	IC50 compared with Icaritin, HepG2 72 h (HepG2 hepatoma cells)	Solubility, 0.1% Tween 80 [1]	Solubility, Normal Saline [1]	Solubility, PBS [1]	Solubility, Water [1]	other results
COc1ccc(-c2oc3c(CC=C(C)C)c(O)cc(O)c3c(=O)c2OC(=O)CCC(=O)OCc2cn([C@H]3O[C@@H](CO)[C@H](O)[C@@H](O)[C@@H]3O)nn2)cc1 [Compound 35]	> 100	> 100	> 100	> 100	12 ± 1.02 (≈ 16.8 µM)	12.1 ± 1.03 (≈ 17 µM)	12 ± 1.23 (≈ 16.8 µM)	–	–	–	–	–	–	–	–	–	solubility compared with that of the bulk drug (Icaritin) [1]: improved effectively; solubility ([1]; saline or isotonic): 12.3 ± 1.31 µg/mL (≈ 17.3 µM)
COc1ccc(-c2oc3c(CC=C(C)C)c(O)cc(O)c3c(=O)c2OC(=O)CCC(=O)OCc2cn(CCOC3OC(CO)C(O)C(O)C3O)nn2)cc1 (centres unmarked) [Compound 39]	–	–	–	–	–	–	–	> 100	6.65 ± 1.29	> 100	5.56 ± 0.6	less than that of Icaritin	13.819 ± 1.323 µg/mL (≈ 18.3 µM)	13.828 ± 1.123 µg/mL (≈ 18.3 µM)	13.825 ± 0.937 µg/mL (≈ 18.3 µM)	13.871 ± 1.031 µg/mL (≈ 18.4 µM)	IC50 compared with Icaritin, SMMC7721 72 h (SMMC7721 hepatoma cells): less than that of Icaritin; solubility compared with that of the bulk drug (Icaritin) [1]: improved effectively
COc1ccc(-c2oc3c(CC=C(C)C)c(O)cc(O)c3c(=O)c2OC(=O)CCC(=O)OCc2cn(CCOCCO[C@H]3O[C@@H](CO)[C@H](O)[C@@H](O)[C@@H]3O)nn2)cc1 [Compound 44]	> 100	> 100	> 100	10.1 ± 0.32	11 ± 1.04 (≈ 13.8 µM)	11.2 ± 1.09 (≈ 14 µM)	11.3 ± 0.831 (≈ 14.1 µM)	–	–	–	–	less than that of Icaritin	–	–	–	–	solubility compared with that of the bulk drug (Icaritin) [1]: improved effectively; solubility ([1]; saline or isotonic): 11 ± 1.03 µg/mL (≈ 13.8 µM)
COc1ccc(-c2oc3c(CC=C(C)C)c(O)cc(O)c3c(=O)c2OC(=O)CCC(=O)OCCOCCOCCOCCOCc2cn([C@H]3O[C@@H](CO)[C@H](O)[C@@H](O)[C@@H]3O)nn2)cc1 [Compound 50]	> 100	46.5 ± 3.43	24.1 ± 3.06	25.3 ± 2.11	4.53 ± 0.347 (≈ 5.11 µM)	4.64 ± 1.27 (≈ 5.22 µM)	4.55 ± 0.324 (≈ 5.13 µM)	–	–	–	–	–	–	Insoluble	–	–	–
COc1ccc(-c2oc3c(CC=C(C)C)c(O)cc(O)c3c(=O)c2OC(=O)CCC(=O)OCCOCCOCCOCc2cn(CCO[C@H]3O[C@@H](CO)[C@H](O)[C@@H](O)[C@@H]3O)nn2)cc1 [Compound 58]	> 100	2.51 ± 0.72	19.7 ± 0.52	20 ± 2.12	3.82 ± 0.874 (≈ 4.31 µM)	3.89 ± 0.941 (≈ 4.38 µM)	3.64 ± 0.374 (≈ 4.1 µM)	–	–	–	–	–	–	–	–	–	IC50 compared with Icaritin, SMMC7721 72 h (SMMC7721 hepatoma cells): less than that of Icaritin; solubility ([1]; saline or isotonic): 3.68 ± 0.947 µg/mL (≈ 4.15 µM)
COc1ccc(-c2oc3c(CC=C(C)C)c(O)cc(O)c3c(=O)c2OC(=O)CCC(=O)OCCOCCOCc2cn([C@H]3O[C@@H](CO)[C@H](O)[C@@H](O)[C@@H]3O)nn2)cc1 [Compound 64]	> 100	> 100	> 100	32.6 ± 3.12	0.991 ± 0.314 (≈ 1.24 µM)	1.08 ± 0.756 (≈ 1.35 µM)	2.24 ± 0.941 (≈ 2.8 µM)	–	–	–	–	–	–	Insoluble	–	–	–
COc1ccc(-c2oc3c(CC=C(C)C)c(O)cc(O)c3c(=O)c2OC(=O)CCC(=O)OCCOCCOCc2cn(CCO[C@@H]3O[C@H](CO)[C@@H](O)[C@H](O)[C@H]3O)nn2)cc1 [Compound 65]	> 100	> 100	> 100	37.74 ± 0.2	–	–	–	–	–	–	–	–	Insoluble	Insoluble	Insoluble	Insoluble	–
COc1ccc(-c2oc3c(CC=C(C)C)c(O)cc(O)c3c(=O)c2OC(=O)CCC(=O)OCCOCc2cn(C3O[C@H](CO)[C@@H](O)[C@H](O)[C@H]3O)nn2)cc1 (some centres unmarked) [Compound 71]	–	–	–	–	–	–	–	–	–	–	–	–	Insoluble	Insoluble	Insoluble	Insoluble	IC50 (SMMC7721 hepatoma cells; Homo sapiens, SMMC-7721, 48 h, read-out: IC50 SMMC7721 48 h): > 100 µM; IC50 (SMMC7721 hepatoma cells; Homo sapiens, SMMC-7721, 72 h, read-out: IC50 SMMC7721 72 h): 29.7 ± 1.23 µM; IC50 (HepG2 hepatoma cells; Homo sapiens, HepG2, 48 h, read-out: IC50 HepG2 48 h): > 100 µM; IC50 (HepG2 hepatoma cells; Homo sapiens, HepG2, 72 h, read-out: IC50 HepG2 72 h): > 100 µM
COc1ccc(-c2oc3c(CC=C(C)C)c(O)cc(O)c3c(=O)c2OC(=O)CCC(=O)OCCOCc2cn(CCOC3OC(CO)C(O)C(O)C3O)nn2)cc1 (centres unmarked) [Compound 72]	–	–	–	–	–	–	–	> 100	> 100	> 100	> 100	–	5.697 ± 1.312 µg/mL (≈ 7.12 µM)	5.673 ± 1.031 µg/mL (≈ 7.09 µM)	5.656 ± 1.131 µg/mL (≈ 7.07 µM)	5.852 ± 0.748 µg/mL (≈ 7.32 µM)	–
COc1ccc(-c2oc3c(CC=C(C)C)c(O)cc(O)c3c(=O)c2OC(=O)CCC(=O)OCCOCc2cn(CCOCCOC3OC(CO)C(O)C(O)C3O)nn2)cc1 (centres unmarked) [Compound 73]	–	–	–	–	–	–	–	> 100	37.2 ± 1.36	43.2 ± 1.21	36.8 ± 0.65	–	Insoluble	Insoluble	Insoluble	Insoluble	–
COc1ccc(-c2oc3c(CC=C(C)C)c(O)cc(O)c3c(=O)c2OC(=O)CCC(=O)NCCCCCOCc2cn(C3O[C@H](CO)[C@@H](O)[C@H](O)[C@H]3O)nn2)cc1 (some centres unmarked) [Compound 81]	> 100	22.2 ± 1.45	> 100	12 ± 1.23	–	–	–	–	–	–	–	less than that of Icaritin	Insoluble	Insoluble	Insoluble	Insoluble	–
COc1ccc(-c2oc3c(CC=C(C)C)c(O)cc(O)c3c(=O)c2OC(=O)CCC(=O)OCCCCOCc2cn(C3OC(CO)C(O)C(O)C3O)nn2)cc1 (centres unmarked) [Compound 87]	–	–	–	–	–	–	–	> 100	12.7 ± 1.02	> 100	7.03 ± 0.67	less than that of Icaritin	–	–	–	–	IC50 compared with Icaritin, SMMC7721 72 h (SMMC7721 hepatoma cells): less than that of Icaritin; Solubility, 0.1% Tween 80 ([1]; 0.1% Tween 80, 37° C. overnight, n = 3): 1.358 ± 0.235 µg/mL (≈ 1.73 µM); Solubility, PBS ([1]; PBS, 37° C. overnight, n = 3): Insoluble; Solubility, Normal Saline ([1]; normal saline, 37° C. overnight, n = 3): 1.386 ± 0.743 µg/mL (≈ 1.77 µM); Solubility, Water ([1]; water, 37° C. overnight, n = 3): 1.277 ± 0.836 µg/mL (≈ 1.63 µM)
COc1ccc(-c2oc3c(CC=C(C)C)c(O)cc(O)c3c(=O)c2OC(=O)CCC(=O)OCCCCOCc2cn(CCOC3OC(CO)C(O)C(O)C3O)nn2)cc1 (centres unmarked) [Compound 88]	–	–	–	–	–	–	–	> 100	40.5 ± 1.56	> 100	> 100	–	8.384 ± 1.363 µg/mL (≈ 10.1 µM)	7.399 ± 0.384 µg/mL (≈ 8.94 µM)	Insoluble	7.597 ± 1.038 µg/mL (≈ 9.18 µM)	–
COc1ccc(-c2oc3c(CC=C(C)C)c(O)cc(O)c3c(=O)c2OC(=O)CCC(=O)OCCCCOCc2cn(CCOCCOC3OC(CO)C(O)C(O)C3O)nn2)cc1 (centres unmarked) [Compound 89]	–	–	–	–	–	–	–	> 100	35.6 ± 1.36	> 100	> 100	–	Insoluble	Insoluble	Insoluble	Insoluble	–
COc1ccc(-c2oc3c(CC=C(C)C)c(O)cc(O)c3c(=O)c2OC(=O)CCC(=O)OCCCOCc2cn(CCO[C@H]3O[C@@H](CO)[C@H](O)[C@@H](O)[C@@H]3O)nn2)cc1 [Compound 96]	29.7 ± 1.23	6.65 ± 1.29	12 ± 0.82	5.56 ± 0.8	15.5 ± 1.31 (≈ 19 µM)	16.8 ± 0.422 (≈ 20.7 µM)	16.9 ± 0.462 (≈ 20.7 µM)	–	–	–	–	less than that of Icaritin	–	–	–	–	IC50 compared with Icaritin, SMMC7721 72 h (SMMC7721 hepatoma cells): less than that of Icaritin; IC50 compared with Icaritin, 48 and 72 h (HepG2 hepatoma cells; HepG2 and SMMC7721, 48 and 72 h): less than those of Icaritin; solubility compared with that of the bulk drug (Icaritin) [1]: improved effectively; solubility ([1]; saline or isotonic): 16.8 ± 0.313 µg/mL (≈ 20.7 µM)
